Patent US20080300298A1, “Honokiol Derivates For the Treatment of Proliferative Disorders” (priority 2005, published 2008)

Tests used:
IKK = molecular target: T1, IKK (Homo sapiens, UniProt O14920+O15111); experiment: IKK assay (immune complex kinase assay); format: cell-based
T1 construct: 200 mg of extract was immunoprecipitated with antibodies against IKKa and IKKb; endogenous in cells; host or cells: H1299 cells, whole-cell extracts, immunoprecipitated
Experimental: Honokiol inhibits TNF-induced activation of NF-kB. H1299 cells were incubated with […] honokiol for 12 h, treated with 0.1 nM TNF for the indicated times, and then analyzed for NF-kB activation by EMSA. (B) H1299 cells (2×10^6/ml) were incubated with […] honokiol for 12 h at 37° C., treated with 0.1 nM TNF for the indicated times at 37° C., and then tested for IkBa (upper panel) in cytosolic fractions by Western blot analysis. Equal protein loading was evaluated by b-actin (lower panel). (C) Honokiol blocks the phosphorylation and ubiquitination (D) of IkBaby TNF. […] To examine the effect of honokiol on the level of expression of IKK proteins, 30 mg of whole-cell extract was analyzed on 10% SDS-PAGE, electrotransferred, and immunoblotted with the indicated antibodies as described in Materials and Methods. […] Nuclear extracts were prepared and analyzed by Western blotting using antibodies against p65. […] The cytoplasmic and nuclear extracts were analyzed by Western blotting using antibodies against the phosphorylated form of p65.
IKK assay. To determine the effect of honokiol on TNF-induced IKK activation, we analyzed IKK by a method essentially as described previously (Shishodia, S., et al. 2003 Cancer Res. 63:4375-4383). […]

MDA-MB-231 cells = experiment: MDA-MB-231 tumors in nude mice; format: in vivo
Experimental: FIG. 36 is a graph of tumor volume over weeks of tumors in mice. MDA-MB-231 cells were injected into both flanks of athymic nude mice. The mice were treated with daily I.P. injections of either a vehicle (n=5) or HNK (2 mg/d, n=5) for four weeks.
Animal studies: All animals were maintained and animal experiments were performed under NIH and institutional guidelines established for the Animal Core Facility at the Cedars-Sinai Medical Center. MDA-MB-231 cells were harvested, washed twice with sterile PBS, counted and re-suspended in Matrigel (BD Biosciences, San Jose, Calif.). Six-week-old female athymic nude mice were injected subcutaneously in both flanks with cells at a density of 1×10^6 viable cells/100 μl. […] Tumor size was measured with a linear caliper for up to 5 weeks, and the volume was estimated by using the equation V=(a×b2)×0.5236, where “a” is the larger dimension and “b” the perpendicular diameter.
In vivo activity of HNK against human breast cancer. MDA-MB-231 cells were injected on both flanks of nude mice (1×10^6 cells per injection, five mice per group, two tumors in each mouse), and tumor growth was monitored weekly. […] The mice were treated with daily injections of either 2 mg HNK (100 mg/kg) or a control vehicle for four weeks; and the tumors were measured weekly.

[1] = system: AKT, p44/42 MAPK, and Src phosphorylation in SVR cells; experiment: Western blotting of phosphorylated intracellular proteins; format: cell-based
Description: FIG. 14 depicts the effects of honokiol on the phosphorylation of various intracellular proteins. […] Cells were lysed and analyzed by Western blotting using antibodies specific for the phosphorylated (P-AKT, P-MAPK, and P-Src) or unphosphorylated forms of AKT and MAPK. […] Cells were lysed and analyzed by Western blotting using antibodies specific for the phosphorylated (P-Akt, P-MAPK, and P-Src) or unphosphorylated forms of Akt and MAPK.

T1 sequence (O15111 whole entry): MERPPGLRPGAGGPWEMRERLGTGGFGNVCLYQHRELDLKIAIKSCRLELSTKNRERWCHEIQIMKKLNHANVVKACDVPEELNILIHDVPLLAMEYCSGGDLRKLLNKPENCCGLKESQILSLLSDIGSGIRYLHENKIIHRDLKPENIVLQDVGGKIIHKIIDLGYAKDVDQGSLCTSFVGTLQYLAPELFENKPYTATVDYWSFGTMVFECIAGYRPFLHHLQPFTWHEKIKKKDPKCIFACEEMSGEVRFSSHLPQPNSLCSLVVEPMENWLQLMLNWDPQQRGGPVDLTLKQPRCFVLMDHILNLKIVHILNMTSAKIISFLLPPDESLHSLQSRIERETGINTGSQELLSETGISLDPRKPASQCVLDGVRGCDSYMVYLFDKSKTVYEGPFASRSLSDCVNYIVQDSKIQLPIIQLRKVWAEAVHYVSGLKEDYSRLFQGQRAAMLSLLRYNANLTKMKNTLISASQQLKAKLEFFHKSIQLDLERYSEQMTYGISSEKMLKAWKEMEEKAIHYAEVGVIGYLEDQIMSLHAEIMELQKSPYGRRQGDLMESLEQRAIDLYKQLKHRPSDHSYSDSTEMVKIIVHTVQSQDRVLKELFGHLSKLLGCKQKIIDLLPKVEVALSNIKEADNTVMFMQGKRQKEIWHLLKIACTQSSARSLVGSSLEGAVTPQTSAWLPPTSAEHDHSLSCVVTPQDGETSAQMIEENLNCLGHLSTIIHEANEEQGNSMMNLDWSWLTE
T1 sequence (O14920 whole entry): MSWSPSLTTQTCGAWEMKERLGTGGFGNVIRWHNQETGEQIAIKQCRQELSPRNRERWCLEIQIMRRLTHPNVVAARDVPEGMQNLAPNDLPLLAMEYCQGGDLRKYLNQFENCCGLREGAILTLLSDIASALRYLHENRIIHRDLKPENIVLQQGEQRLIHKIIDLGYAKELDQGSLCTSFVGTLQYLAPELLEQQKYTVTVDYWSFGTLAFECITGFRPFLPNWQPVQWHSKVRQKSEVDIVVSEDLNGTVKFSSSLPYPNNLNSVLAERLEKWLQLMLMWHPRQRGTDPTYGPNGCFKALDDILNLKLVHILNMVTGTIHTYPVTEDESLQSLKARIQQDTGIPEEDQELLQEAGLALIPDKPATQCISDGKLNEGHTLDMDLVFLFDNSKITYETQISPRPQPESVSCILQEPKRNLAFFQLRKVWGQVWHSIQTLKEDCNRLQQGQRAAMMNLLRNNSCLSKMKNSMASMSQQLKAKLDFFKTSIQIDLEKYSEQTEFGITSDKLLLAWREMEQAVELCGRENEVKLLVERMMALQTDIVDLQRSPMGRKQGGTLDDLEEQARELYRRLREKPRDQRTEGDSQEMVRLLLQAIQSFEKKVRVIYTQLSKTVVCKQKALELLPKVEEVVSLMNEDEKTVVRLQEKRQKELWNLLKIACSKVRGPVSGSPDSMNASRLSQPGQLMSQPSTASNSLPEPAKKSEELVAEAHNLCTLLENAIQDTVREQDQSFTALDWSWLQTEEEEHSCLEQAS
T1 sequence (Q9Y6K9 whole entry partner): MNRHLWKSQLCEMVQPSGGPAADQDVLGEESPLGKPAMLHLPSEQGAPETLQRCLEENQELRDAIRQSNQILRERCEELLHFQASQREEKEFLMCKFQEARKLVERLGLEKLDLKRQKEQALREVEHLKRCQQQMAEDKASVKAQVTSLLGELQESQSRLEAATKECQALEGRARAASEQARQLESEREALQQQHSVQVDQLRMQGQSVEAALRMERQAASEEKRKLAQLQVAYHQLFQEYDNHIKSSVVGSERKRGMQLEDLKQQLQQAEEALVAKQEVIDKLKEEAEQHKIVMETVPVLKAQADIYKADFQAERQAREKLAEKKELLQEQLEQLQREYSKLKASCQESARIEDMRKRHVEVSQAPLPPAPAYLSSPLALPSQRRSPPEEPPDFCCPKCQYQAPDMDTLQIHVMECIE

C=CCc1ccc(O)c(-c2ccc(O)c(CC=C)c2)c1 [HNK, Honokiol]
TNF-induced IKK activation (IKK; cells treated with honokiol 12 h, 0.1 nM TNF): completely suppressed TNF-induced activation of IKK | IKK activity in vitro (direct effect) (IKK; in vitro): did not directly interfere with the IKK activity | tumor growth (MDA-MB-231 cells; 2 mg HNK (100 mg/kg) daily i.p., four weeks, p<0.02 from week 2): complete arrest of tumor growth | tolerability in the animals (MDA-MB-231 cells; therapeutically beneficial doses): well tolerated by the animals | phosphorylation of Akt, p44/42 MAPK, Src at low concentrations ([1]; 2.7, 6.7 or 13.3 μg/ml, 2, 6 or 24 h): inhibits phosphorylation of Akt at low concentrations but not p44/42 MAPK or Src | phosphorylation of AKT, p44/42 MAPK, and Src ([1]; 20, 30, 40 or 45 μg/ml, 1 h): inhibits phosphorylation of AKT, p44/42 MAPK, and Src
